# Literature values, collected in publication PMC8537988, “Re-Use of Caco-2 Monolayers in Permeability Assays—Validation Regarding Cell Monolayer Integrity” (Pharmaceutics, 2021).
# Experiments:
# [1] = system: transporters in the membrane (influx or efflux); set-up: method as in PMID 9213361; conditions: cited from earlier work
# Caco-2 monolayers = system: Caco-2 monolayers; set-up: method as in PMID 34247356; conditions: day 23 post-seeding, 90 min sampling interval; cited from earlier work
substance,measurement,setting,value
Lucifer yellow CH di-potassium salt [LY],substrate of transporters in the membrane (influx or efflux),[1],not a substrate of transporters in the membrane (influx or efflux)
same,amount of LY that permeates through Caco-2 monolayers,Caco-2 monolayers,0.27%
